We go through one compound from patent publication US7053194B2, “Compositions and methods for p53-mediated repression of gene expression” (Fox Chase Cancer Center, priority 1999, dated 2006).

One assay has as its system MCF7 cells. Put plainly: Cyclin-dependent kinase assays. The conditions noted are these: MCF7 treated with doxorubicin. It is filed as cell-based, human. As to the method: Cyclin-dependent kinase assays were performed essentially as described (Harper et al., 1993), using 250 ug of whole cell extract immunoprecipitated with 0.5 ug of polyclonal antisera to cdk2 (Santa Cruz Biotechnology), cyclin E and cyclin A. Following immunoprecipitation and washing, 1 ug of histone H1 (Sigma) was used as a substrate, in kinase reaction buffer (20 mM Tris pH 7.4/7.5 mM MgCl2/1 mM DTT), supplemented with 5 mM sodium fluoride, 1 mM sodium ortho-vanadate, and 125 ng/uL cAMP-dependent protein kinase inhibitor (Sigma). 0.5 uL of ^32P-ATP (NEN, 800 Ci/mmol) was added to each reaction, and 0.5 ug of normal rabbit IgG (Sigma) was used as a negative control. Following incubation at 37 degrees for 20 minutes, reactions were boiled in Laemmli sample buffer and loaded onto 10% SDS-PAGE. Cells for flow cytometry were fixed in ethanol and stained with propidium iodide as described (Murphy et al., Genes & Devel. 10:2971–2980, 1996) and analyzed on a Becton Dickinson FacScan. G1, S (synthesis) and G2/M populations were calculated using the program CellQuest.
This finding is consistent with flow cytometry data, which indicate that these cells are arrested in G2/M (not shown). As a negative control, normal rabbit IgG is used instead of polyclonal antisera for the immunoprecipitations and kinase assays (lanes 1 and 4).

The subject of assay [1] is MCF7 breast carcinoma cells. Put plainly: Western analysis of p53 and survivin protein after doxorubicin. The conditions noted are these: twenty-four hour treatment. It is filed as cell-based, human. Here is the method: (§1) MCF-7 cells were maintained in RPMI-1640 supplemented with 10% fetal bovine serum and 100 units/ml of penicillin and streptomycin. The human melanoma cell line CaCl, and the derivative clone expressing the HPV E6 gene, were cultured as described (Ahn et al., Oncogene). The human osteosarcoma cell lines Saos-2 and U2-OS (kindly provided by Peter Adams, Fox Chase Cancer Center), the murine p21 knock-out fibroblasts (kindly provided by James Sherley, MIT) and the human lung adenocarcinoma cell line H1299 were cultured in DMEM supplemented with 10% fetal bovine serum and 100 units/ml of penicillin and streptomycin. […] For treatment with ultra-violet light, cells were irradiated with 0–10 J/m2 (as noted) of UV-C with a Spectroline X series ultraviolet lamp, and output was monitored with a traceable UV light meter (Fisher Scientific). For drug treatment, cells were treated with 0.5ug/ml adriamycin (doxorubicin, Sigma), or dilution vehicle alone, for twenty-four hours. p53 induction was monitored by western analysis of 100 ug protein as described (Murphy et al., Genes & Devel. 10:2971–2980, 1996), using 0.1ug/ml DO-1 (Ab-6, Calbiochem) or 421 (Ab-1, Calbiochem.
(§2) Western analysis was performed essentially as described (Murphy et al., 1999). […] Protein concentrations were determined using the Bio-Rad Dc Protein Assay (Bio-Rad). […]

The test system of assay [2] is H1299 human lung adenocarcinoma. Put plainly: Northern analysis of stathmin mRNA in p53-null cells. It is filed as cell-based. The conditions noted are these: H1299, null for p53.
Assay [3] concerns Saos2 (p53-null) and U20S (wt p53). Put plainly: Western analysis of survivin after doxorubicin in osteosarcoma lines. Format: cell-based, human. The note with it: Saos2 (p53-null) versus U20S (wt p53), doxorubicin treatment. As to the method:
as §1, §2

Consider `COc1cccc2c1C(=O)c1c(O)c3c(c(O)c1C2=O)C[C@@](O)(C(=O)CO)C[C@@H]3O[C@H]1C[C@H](N)[C@H](O)[C@H](C)O1` [adriamycin, doxorubicin], for which, in the assay on MCF7 cells, the “cdk2, cyclin A and cyclin E kinase activities” value was “all activities are low”; the cell cycle arrest entry was “arrest in G2/M phase”. Besides, in assay [1], the “decrease of survivin protein levels” value is recorded as 3–4 fold and the “induction of p53 expression” value was determined as 4 fold. For the same compound, in assay [2], the “effect on stathmin levels” value is “neither TSA nor adriamycin had any effect on stathmin levels”. In addition, in assay [3], the survivin protein levels entry was “decreased survivin protein levels only in cells with wt p53 (U20S)”.
